The values that follow come from US10329268B2, “Processes for preparing medicaments for the treatment of cardiovascular diseases and intermediates for use therein” (Bial-Portela & CA., S.A., priority 2013, dated 2019).

The conditions of data set [1]: background statement; cited from earlier work.
The target of data set [2] is T1, dopamine-β-hydroxylase (Homo sapiens, UniProt P09172).
T1 sequence (P09172 1-617): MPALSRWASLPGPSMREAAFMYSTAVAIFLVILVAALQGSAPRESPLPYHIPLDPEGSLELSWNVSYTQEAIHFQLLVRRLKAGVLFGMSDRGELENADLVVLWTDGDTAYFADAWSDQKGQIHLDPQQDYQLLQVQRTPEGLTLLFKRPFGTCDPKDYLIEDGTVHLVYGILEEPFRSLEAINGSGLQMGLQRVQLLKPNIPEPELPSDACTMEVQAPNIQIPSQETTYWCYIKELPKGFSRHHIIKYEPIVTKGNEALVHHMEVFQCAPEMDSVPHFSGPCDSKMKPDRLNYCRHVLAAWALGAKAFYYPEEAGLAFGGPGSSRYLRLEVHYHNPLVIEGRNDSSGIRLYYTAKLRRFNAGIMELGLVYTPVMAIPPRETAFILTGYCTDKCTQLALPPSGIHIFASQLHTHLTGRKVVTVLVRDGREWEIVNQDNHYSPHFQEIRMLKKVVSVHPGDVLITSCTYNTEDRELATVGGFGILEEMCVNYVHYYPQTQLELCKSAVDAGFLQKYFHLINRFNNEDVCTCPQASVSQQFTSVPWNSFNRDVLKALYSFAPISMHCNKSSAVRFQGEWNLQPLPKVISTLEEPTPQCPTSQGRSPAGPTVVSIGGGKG
Conditions: background statement, WO2004/033447 / WO2008/136695; cited from earlier work.

Data set [3] in a line: Aqueous solubility at 37° C. in solutions of pH 1.2 to 9.0. It is filed as physicochemical. Here is the method: The aqueous solubility of (R)-5-(2-(benzylamino)ethyl)-1-(6,8-difluorochroman-3-yl)-1H-imidazole-2(3H)-thione was determined in triplicate at 37° C. Aqueous solutions of HCl (pH 1.2, 2.0, 3.0), potassium chloride (pH 1.2, 2.0), acid phthalate (pH 3.0), acetate (pH 4.5, 5.5), phosphate (pH 7.4) and boric acid (pH 9.0) were tested.

Data set [4] is described as follows: Solubility in organic solvents according to Eur. Ph. Chapter 5.11. It is filed as physicochemical. Here is the method: The solubility of non-micronized and micronized (R)-5-(2-(benzylamino)ethyl)-1-(6,8-difluorochroman-3-yl)-1H-imidazole-2(3H)-thione in several organic solvents was determined.
Solubility Solubility was evaluated according to Eur. Ph. Chapter 5.11 at room temperature.
The following descriptions are used to describe the degree of solubility: […]

Regarding `Cl.NCCc1c[nH]c(=S)n1[C@H]1COc2c(F)cc(F)cc2C1` [Compound 1, (R)-5-(2-Aminoethyl)-1-(6,8-difluorochroman-3-yl)-1,3-dihydroimidazole-2-thione hydrochloride], in data set [1], the Toxicity result is reported as “non-toxic”. Also, the “Inhibition of dopamine-β-hydroxylase (DβH)” value in data set [2] is “potent”.
`Fc1cc(F)c2c(c1)C[C@@H](n1c(CCNCc3ccccc3)c[nH]c1=S)CO2` [(R)-5-(2-(benzylamino)ethyl)-1-(6,8-difluorochroman-3-yl)-1H-imidazole-2(3H)-thione]: the “Medium of maximum aqueous solubility” value in data set [3] is recorded as “HCl 0.01 (pH 2.0)”. In addition, the “Aqueous solubility after micronization relative to non-micronized” value in data set [3] (HCl 0.01 (pH 2.0)) is given as “lower”. Further, the “Aqueous solubility as a function of pH” value in data set [3] (pH 1.2 to 9.0, both non-micronized and micronized) is recorded as “decreases with the increase of pH”. Besides, in data set [4] (all of the polar organic aprotic solvents tested), the “Solubility in polar organic aprotic solvents” value is listed as “either sparingly soluble, slightly soluble or very slightly soluble”. The Solubility description entry is reported as “Very slightly soluble (from 1000 to 10,000 parts)” in data set [4] (micronized particles, 1,4-Dioxane, room temperature); “Insoluble” in data set [4] (micronized particles, 2-propanol, room temperature); “Very slightly soluble (from 1000 to 10,000 parts)” in data set [4] (micronized particles, Absolute ethanol, room temperature); “Slightly soluble (from 100 to 1000 parts)” in data set [4] (micronized particles, Acetone, room temperature); “Very slightly soluble (from 1000 to 10,000 parts)” in data set [4] (micronized particles, Acetonitrile, room temperature); “Slightly soluble (from 100 to 1000 parts)” in data set [4] (micronized particles, Chloroform, room temperature). The Solubility description result is “Insoluble” in data set [4] (micronized particles, Cyclohexane, room temperature); “Slightly soluble (from 100 to 1000 parts)” in data set [4] (micronized particles, DMSO, room temperature); “Very slightly soluble (from 1000 to 10,000 parts)” in data set [4] (micronized particles, Dichloromethane, room temperature); “Sparingly soluble (from 30 to 100 parts)” in data set [4] (micronized particles, Dimethylformamide, room temperature); “Very slightly soluble (from 1000 to 10,000 parts)” in data set [4] (micronized particles, Ethyl acetate, room temperature); “Practically insoluble (greater than or equal to 10,000 parts)” in data set [4] (micronized particles, Iso-octane (2,2,4-trimethylpentane), room temperature). Moreover, the Solubility description entry in data set [4] (micronized particles, Methanol or acetonitrile acidified with 0.1% formic acid or TFA, room temperature) is recorded as “Slightly soluble (from 100 to 1000 parts)”; in data set [4] (micronized particles, Methanol, room temperature) it was “Very slightly soluble (from 1000 to 10,000 parts)”; in data set [4] (micronized particles, Methyl ethyl ketone, room temperature), “Slightly soluble (from 100 to 1000 parts)”; in data set [4] (micronized particles, N,N-methylpirrolidone, room temperature) it was “Sparingly soluble (from 30 to 100 parts)”; in data set [4] (micronized particles, Tetrahydrofuran, room temperature) it was “Sparingly soluble (from 30 to 100 parts)”; in data set [4] (non-micronized particles, 1,4-Dioxane, room temperature) it was “Slightly soluble (from 100 to 1000 parts)”. The Solubility description entry in data set [4] (non-micronized particles, 2-propanol, room temperature) is reported as “Insoluble”; in data set [4] (non-micronized particles, Absolute ethanol, room temperature) it was “Practically insoluble (greater than or equal to 10,000 parts)”; in data set [4] (non-micronized particles, Acetone, room temperature), “Slightly soluble (from 100 to 1000 parts)”; in data set [4] (non-micronized particles, Acetonitrile, room temperature), “Very slightly soluble (from 1000 to 10,000 parts)”; in data set [4] (non-micronized particles, Chloroform, room temperature), “Very slightly soluble (from 1000 to 10,000 parts)”; in data set [4] (non-micronized particles, Cyclohexane, room temperature), “Insoluble”. Moreover, the Solubility description entry in data set [4] (non-micronized particles, DMSO, room temperature) is on record as “Sparingly soluble (from 30 to 100 parts)”; in data set [4] (non-micronized particles, Dichloromethane, room temperature), “Slightly soluble (from 100 to 1000 parts)”; in data set [4] (non-micronized particles, Dimethylformamide, room temperature), “Sparingly soluble (from 30 to 100 parts)”; in data set [4] (non-micronized particles, Ethyl acetate, room temperature), “Very slightly soluble (from 1000 to 10,000 parts)”; in data set [4] (non-micronized particles, Hexafluoroisopropanol, room temperature), “Sparingly soluble (from 30 to 100 parts)”; in data set [4] (non-micronized particles, Iso-octane (2,2,4-trimethylpentane), room temperature), “Insoluble”. For the same molecule, the Solubility description result in data set [4] (non-micronized particles, Isopropyl acetate, room temperature) is given as “Very slightly soluble (from 1000 to 10,000 parts)”; in data set [4] (non-micronized particles, Methanol or acetonitrile acidified with 0.1% formic acid or TFA, room temperature), “Sparingly soluble (from 30 to 100 parts)”; in data set [4] (non-micronized particles, Methanol, room temperature), “Very slightly soluble (from 1000 to 10,000 parts)”; in data set [4] (non-micronized particles, Methyl ethyl ketone, room temperature) it was “Slightly soluble (from 100 to 1000 parts)”; in data set [4] (non-micronized particles, N,N-methylpirrolidone, room temperature), “Sparingly soluble (from 30 to 100 parts)”; in data set [4] (non-micronized particles, Tetrahydrofuran, room temperature), “Sparingly soluble (from 30 to 100 parts)”. In addition, the Solubility description result in data set [4] (non-micronized particles, Toluene, room temperature) is reported as “Very slightly soluble (from 1000 to 10,000 parts)”; in data set [4] (non-micronized particles, Trifluoroethanol, room temperature), “Slightly soluble (from 100 to 1000 parts)”. Besides, the “Solubility in polar organic solvents” value in data set [4] (most of the polar organic solvents tested) was “mostly either sparingly soluble, slightly soluble or very slightly soluble”. Also, the “Change in the solubility profile, before versus after micronization” value in data set [4] (organic solvents, room temperature) is on record as “no overall significant changes”.
